Measurements from the supplement of paper PMC8612539.
Values after ≈ are worked out from the molar mass of the structure shown.

How the values were obtained:
[1] = test system: Pasteurella multocida; experiment: minimum inhibitory concentration (MIC)
Method: (§1)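 Broth microdilution MIC (Sensititre BOPO7F bovine plate, CLSI methods) of 19 antimicrobials against field isolates of P. multocida, M. haemolytica, H. somni (deep nasopharyngeal swabs) and E. coli, Enterococcus spp. (rectal swabs) from weaned dairy heifers. Incubation 16-24 h at 35 C. MIC is the lowest concentration preventing visible growth. Values with <= or > lie at the tested range limits. Trimethoprim-sulfamethoxazole is given as the trimethoprim component of a 1:19 mixture.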

[2] = test system: Enterococcus spp.; experiment: minimum inhibitory concentration (MIC)
Method: as §1

[3] = isolate (source animal id): 285
[4] = isolate (source animal id): 290
[5] = isolate (source animal id): 296
[6] = isolate (source animal id): 310

**Q.** For `CN[C@@H]1[C@H](O)[C@H](NC)[C@H]2O[C@@]3(O)C(=O)C[C@@H](C)O[C@H]3O[C@@H]2[C@H]1O` [Spectinomycin], which minimum inhibitory concentration ([1]; isolate (source animal id): 269) is on record?
**A.** 32 µg/mL (≈ 96.3 µM)

**Q.** What about the minimum inhibitory concentration ([1]; isolate (source animal id): 270) of the same compound?
**A.** 32 µg/mL (≈ 96.3 µM)

**Q.** What about the minimum inhibitory concentration ([1]; isolate (source animal id): 274) of the same compound?
**A.** 32 µg/mL (≈ 96.3 µM)

**Q.** What about the minimum inhibitory concentration ([1]; isolate (source animal id): 275) of the same compound?
**A.** 32 µg/mL (≈ 96.3 µM)

**Q.** And the minimum inhibitory concentration ([1]; isolate (source animal id): 276)?
**A.** 16 µg/mL (≈ 48.1 µM)

**Q.** And the minimum inhibitory concentration ([1]; isolate (source animal id): 277)?
**A.** 32 µg/mL (≈ 96.3 µM)

**Q.** And the minimum inhibitory concentration ([1]; isolate (source animal id): 278)?
**A.** 32 µg/mL (≈ 96.3 µM)

**Q.** What about the minimum inhibitory concentration ([1]; isolate (source animal id): 279) of the same compound?
**A.** 32 µg/mL (≈ 96.3 µM)

**Q.** What about the minimum inhibitory concentration ([1]; isolate (source animal id): 280) of the same compound?
**A.** 32 µg/mL (≈ 96.3 µM)

**Q.** And the minimum inhibitory concentration ([1]; isolate (source animal id): 284)?
**A.** 32 µg/mL (≈ 96.3 µM)

**Q.** And the minimum inhibitory concentration [1, 3]?
**A.** 32 µg/mL (≈ 96.3 µM)

**Q.** What about the minimum inhibitory concentration ([1]; isolate (source animal id): 287) of the same compound?
**A.** 32 µg/mL (≈ 96.3 µM)

**Q.** And the minimum inhibitory concentration [1, 4]?
**A.** 32 µg/mL (≈ 96.3 µM)

**Q.** What about the minimum inhibitory concentration ([1]; isolate (source animal id): 294) of the same compound?
**A.** 32 µg/mL (≈ 96.3 µM)

**Q.** What about the minimum inhibitory concentration ([1]; isolate (source animal id): 295) of the same compound?
**A.** 16 µg/mL (≈ 48.1 µM)

**Q.** And the minimum inhibitory concentration [1, 5]?
**A.** 32 µg/mL (≈ 96.3 µM)

**Q.** What about the minimum inhibitory concentration ([1]; isolate (source animal id): 307) of the same compound?
**A.** 32 µg/mL (≈ 96.3 µM)

**Q.** What about the minimum inhibitory concentration [1, 6] of the same compound?
**A.** 32 µg/mL (≈ 96.3 µM)

**Q.** What about the minimum inhibitory concentration ([1]; isolate (source animal id): 311) of the same compound?
**A.** 16 µg/mL (≈ 48.1 µM)

**Q.** What about the minimum inhibitory concentration ([1]; isolate (source animal id): 312) of the same compound?
**A.** 16 µg/mL (≈ 48.1 µM)

**Q.** What about the minimum inhibitory concentration ([1]; isolate (source animal id): 313) of the same compound?
**A.** 16 µg/mL (≈ 48.1 µM)

**Q.** And the minimum inhibitory concentration ([1]; isolate (source animal id): 315)?
**A.** 32 µg/mL (≈ 96.3 µM)

**Q.** And the minimum inhibitory concentration ([1]; isolate (source animal id): 316)?
**A.** 32 µg/mL (≈ 96.3 µM)

**Q.** And the minimum inhibitory concentration ([2]; isolate (source animal id): 2)?
**A.** 64 µg/mL (≈ 193 µM)

**Q.** And the minimum inhibitory concentration ([2]; isolate (source animal id): 35)?
**A.** > 64 µg/mL

**Q.** What about the minimum inhibitory concentration ([2]; isolate (source animal id): 42) of the same compound?
**A.** 64 µg/mL (≈ 193 µM)

**Q.** What about the minimum inhibitory concentration ([2]; isolate (source animal id): 44) of the same compound?
**A.** 64 µg/mL (≈ 193 µM)

**Q.** And the minimum inhibitory concentration ([2]; isolate (source animal id): 79)?
**A.** 64 µg/mL (≈ 193 µM)

**Q.** And the minimum inhibitory concentration ([2]; isolate (source animal id): 88)?
**A.** 32 µg/mL (≈ 96.3 µM)

**Q.** What about the minimum inhibitory concentration ([2]; isolate (source animal id): 91) of the same compound?
**A.** 32 µg/mL (≈ 96.3 µM)

**Q.** What about the minimum inhibitory concentration ([2]; isolate (source animal id): 92) of the same compound?
**A.** 16 µg/mL (≈ 48.1 µM)

**Q.** What about the minimum inhibitory concentration ([2]; isolate (source animal id): 111) of the same compound?
**A.** 32 µg/mL (≈ 96.3 µM)

**Q.** What about the minimum inhibitory concentration ([2]; isolate (source animal id): 122) of the same compound?
**A.** > 64 µg/mL

**Q.** And the minimum inhibitory concentration ([2]; isolate (source animal id): 123)?
**A.** 64 µg/mL (≈ 193 µM)

**Q.** And the minimum inhibitory concentration ([2]; isolate (source animal id): 133)?
**A.** 64 µg/mL (≈ 193 µM)

**Q.** What about the minimum inhibitory concentration ([2]; isolate (source animal id): 158) of the same compound?
**A.** 64 µg/mL (≈ 193 µM)

**Q.** What about the minimum inhibitory concentration ([2]; isolate (source animal id): 168) of the same compound?
**A.** 64 µg/mL (≈ 193 µM)

**Q.** What about the minimum inhibitory concentration ([2]; isolate (source animal id): 169) of the same compound?
**A.** 64 µg/mL (≈ 193 µM)

**Q.** What about the minimum inhibitory concentration ([2]; isolate (source animal id): 171) of the same compound?
**A.** 64 µg/mL (≈ 193 µM)

**Q.** And the minimum inhibitory concentration ([2]; isolate (source animal id): 175)?
**A.** 64 µg/mL (≈ 193 µM)

**Q.** What about the minimum inhibitory concentration ([2]; isolate (source animal id): 177) of the same compound?
**A.** 64 µg/mL (≈ 193 µM)

**Q.** What about the minimum inhibitory concentration ([2]; isolate (source animal id): 181) of the same compound?
**A.** 64 µg/mL (≈ 193 µM)

**Q.** What about the minimum inhibitory concentration ([2]; isolate (source animal id): 182) of the same compound?
**A.** 64 µg/mL (≈ 193 µM)

**Q.** What about the minimum inhibitory concentration ([2]; isolate (source animal id): 183) of the same compound?
**A.** 64 µg/mL (≈ 193 µM)

**Q.** And the minimum inhibitory concentration ([2]; isolate (source animal id): 187)?
**A.** 64 µg/mL (≈ 193 µM)

**Q.** And the minimum inhibitory concentration ([2]; isolate (source animal id): 190)?
**A.** 64 µg/mL (≈ 193 µM)

**Q.** What about the minimum inhibitory concentration ([2]; isolate (source animal id): 194) of the same compound?
**A.** 64 µg/mL (≈ 193 µM)

**Q.** And the minimum inhibitory concentration ([2]; isolate (source animal id): 195)?
**A.** 64 µg/mL (≈ 193 µM)

**Q.** What about the minimum inhibitory concentration ([2]; isolate (source animal id): 197) of the same compound?
**A.** 64 µg/mL (≈ 193 µM)

**Q.** What about the minimum inhibitory concentration ([2]; isolate (source animal id): 211) of the same compound?
**A.** 64 µg/mL (≈ 193 µM)

**Q.** What about the minimum inhibitory concentration ([2]; isolate (source animal id): 214) of the same compound?
**A.** 64 µg/mL (≈ 193 µM)

**Q.** What about the minimum inhibitory concentration ([2]; isolate (source animal id): 222) of the same compound?
**A.** 64 µg/mL (≈ 193 µM)

**Q.** And the minimum inhibitory concentration ([2]; isolate (source animal id): 223)?
**A.** 64 µg/mL (≈ 193 µM)

**Q.** And the minimum inhibitory concentration ([2]; isolate (source animal id): 228)?
**A.** 64 µg/mL (≈ 193 µM)

**Q.** What about the minimum inhibitory concentration ([2]; isolate (source animal id): 230) of the same compound?
**A.** 64 µg/mL (≈ 193 µM)

**Q.** What about the minimum inhibitory concentration ([2]; isolate (source animal id): 235) of the same compound?
**A.** 64 µg/mL (≈ 193 µM)

**Q.** And the minimum inhibitory concentration ([2]; isolate (source animal id): 236)?
**A.** 64 µg/mL (≈ 193 µM)

**Q.** And the minimum inhibitory concentration ([2]; isolate (source animal id): 239)?
**A.** 64 µg/mL (≈ 193 µM)

**Q.** What about the minimum inhibitory concentration ([2]; isolate (source animal id): 241) of the same compound?
**A.** 64 µg/mL (≈ 193 µM)

**Q.** And the minimum inhibitory concentration ([2]; isolate (source animal id): 244)?
**A.** 64 µg/mL (≈ 193 µM)

**Q.** What about the minimum inhibitory concentration ([2]; isolate (source animal id): 246) of the same compound?
**A.** 64 µg/mL (≈ 193 µM)

**Q.** What about the minimum inhibitory concentration ([2]; isolate (source animal id): 247) of the same compound?
**A.** 64 µg/mL (≈ 193 µM)

**Q.** And the minimum inhibitory concentration ([2]; isolate (source animal id): 250)?
**A.** 64 µg/mL (≈ 193 µM)

**Q.** What about the minimum inhibitory concentration ([2]; isolate (source animal id): 252) of the same compound?
**A.** 64 µg/mL (≈ 193 µM)

**Q.** And the minimum inhibitory concentration ([2]; isolate (source animal id): 268)?
**A.** 32 µg/mL (≈ 96.3 µM)

**Q.** What about the minimum inhibitory concentration ([2]; isolate (source animal id): 282) of the same compound?
**A.** 16 µg/mL (≈ 48.1 µM)

**Q.** And the minimum inhibitory concentration [2, 3]?
**A.** > 64 µg/mL

**Q.** And the minimum inhibitory concentration ([2]; isolate (source animal id): 289)?
**A.** 64 µg/mL (≈ 193 µM)

**Q.** What about the minimum inhibitory concentration [2, 4] of the same compound?
**A.** 64 µg/mL (≈ 193 µM)

**Q.** And the minimum inhibitory concentration [2, 5]?
**A.** 64 µg/mL (≈ 193 µM)

**Q.** What about the minimum inhibitory concentration ([2]; isolate (source animal id): 298) of the same compound?
**A.** 64 µg/mL (≈ 193 µM)

**Q.** What about the minimum inhibitory concentration ([2]; isolate (source animal id): 301) of the same compound?
**A.** 32 µg/mL (≈ 96.3 µM)

**Q.** And the minimum inhibitory concentration [2, 6]?
**A.** 64 µg/mL (≈ 193 µM)

**Q.** What about the minimum inhibitory concentration ([2]; isolate (source animal id): 320) of the same compound?
**A.** 64 µg/mL (≈ 193 µM)

**Q.** And the minimum inhibitory concentration ([2]; isolate (source animal id): 331)?
**A.** 64 µg/mL (≈ 193 µM)

**Q.** What about the minimum inhibitory concentration ([2]; isolate (source animal id): 333) of the same compound?
**A.** 64 µg/mL (≈ 193 µM)

**Q.** And the minimum inhibitory concentration ([2]; isolate (source animal id): 341)?
**A.** 64 µg/mL (≈ 193 µM)
